The text below walks through data of patent US20110144029A1, “Model Systems and Materials for the Study and Treatment of Neurodegenerative Diseases” (BOARD OF REGENTS, THE UNIVERSITY OF TEXAS SYSTEM, priority 2009, published 2011).

Data set [1] has as its system cerebellar granule neurons. Put plainly: Live/Dead (Red/Green) viability assay in cultured cerebellar granule neurons. The following applies: 24 h peptide treatment, HK medium. The class given is cell-based, rat. How it is done: Neuronal cultures were switched to serum-free medium T-peptide, K-peptide, Core-peptide, V-peptide. VV-peptide, and T (L)-peptide. All peptides were used at 25 μM concentration. Phase contrast micrographs show appearance of the cultures after 24 h of peptide treatment. The Live/Dead viability assay was also performed. Nuclei of dead cells are stained red whereas cytoplasm of living cells are stained green. In the case of sick and dying cells, green staining is condensed;
(§1) Cerebellar granule neurons were switched to serum-free medium containing various concentrations of T-peptide, K-peptide, Core-peptide, V-peptide, VV-peptide, and T (L)-peptide. Cell viability was measured using two independent methods 24 h after peptide treatment and results are graphed. * indicates p<0.05 compared with control cells that were treated with HK: (4A) Results from Red/Green viability assay, (4B) Results from MTT assay;
Culturing and treatment of neurons: Cerebellar granule neurons were cultured from 7-8 day old rats as previously described. The neurons were plated in 24-well with poly-L-lysine coated glass coverslips at a density of ˜1 million cells/well in Basal Eagle's Medium with Earle's salts (BME) supplemented with 10% FCS, 25 mM KCl, 2 mM glutamine and […] gentamicin. To prevent mitosis of glial cells, cytosine arabinofuranoside ([…]) was added to culture 16-20 hrs after plating. Neuronal cultures were treated with peptides 6-7 days after plating. For treatment, the cultures were switched to serum-free medium containing 25 mM KCl (referred to as high potassium or HK medium). Although serum is required for proper maturation, after 5 days in culture, the neurons survive normally in the absence of serum provided depolarizing levels of KCl is added.
Cell viability quantification: Cell viability was quantified using the Live/Dead assays with a commercially available kit (Invitrogen). This is a two-color fluorescence assay utilizing two cell-permeable compounds, calcein acetoxymethyl (calcein AM) and ethidium homodimer-1 (EthD-1). Live cells have intracellular esterases that convert non-fluorescent calcein AM to the intensely green fluorescent calcein, which is retained within the cytoplasm of cells. Because dead cells have damaged membranes, EthD-1 enters and is fluorescent when bound to nucleic acids. EthD-1 stains the nuclei of damaged or dead cells. As recommended by the manufacturer, cells plated in wells with cover-slips were incubated in Live/Dead reagent (1 uM calcein AM and 4 uM EthD-1) for 30 min, and then mounted on slides. Cell viability was also analyzed using the MTT [3-(4,5-Dimethylthiazol-2-yl)-2,5-diphenyltetrazolium bromide] assay based on the evaluation of mitochondrial function. MTT assays were performed as previously described. Briefly, MTT (5 mg/ml in culture medium) was added to the culture medium and the cells incubated at 37° C. for 1 h. The assay was stopped by adding lysis buffer [20% sodium dodecyl sulfate (SDS) in 50% N,N-dimethylformamide, pH 4.7]. Absorbance was measured spectrophotometrically at 570 nm after an overnight incubation at room temperature.

Data set [2] has as its system cerebellar granule neurons. In words: MTT assay in cerebellar granule neurons. The following applies: 24 h peptide treatment. It is filed as cell-based, rat. How it is done:
as §1
Culturing and treatment of neurons: Cerebellar granule neurons were cultured from 7-8 day old rats as previously described. The neurons were plated in 24-well with poly-L-lysine coated glass coverslips at a density of ˜1 million cells/well in Basal Eagle's Medium with Earle's salts (BME) supplemented with 10% FCS, 25 mM KCl, 2 mM glutamine and […] gentamicin. […]
Cell viability quantification: Cell viability was quantified using the Live/Dead assays with a commercially available kit (Invitrogen). This is a two-color fluorescence assay utilizing two cell-permeable compounds, calcein acetoxymethyl (calcein AM) and ethidium homodimer-1 (EthD-1). […] Cell viability was also analyzed using the MTT [3-(4,5-Dimethylthiazol-2-yl)-2,5-diphenyltetrazolium bromide] assay based on the evaluation of mitochondrial function. […] Absorbance was measured spectrophotometrically at 570 nm after an overnight incubation at room temperature.
On the technique in general: Formazan colour is commonly taken as a measure of viable cells.

A short description of data set [3]: Polymerization kinetics by Thioflavin S (ThS) fluorescence in the presence of heparin. The class given is physicochemical. To be noted: for A (first phase / growth curve): ST-peptide according to Eqn. [2]. How it is done:
Aggregation kinetics of T-peptide (filled triangles), V-peptide (filled diamonds), F-peptide (X), Core peptide (open triangles), VV-peptide (open diamonds) and K-peptide (filled circles). […] Solid lines represent fitted values;
Kinetic analysis: Polymerization kinetics were measured by monitoring the increase in Thioflavin S (ThS) fluorescence at 490 nm (440 nm excitation). Slit widths were 15 and 20 nm respectively for excitation and emission. All measurements were carried out at 21° C. with a Perkin Elmer LS50B spectrofluorimeter using a 75 μL quartz cell. Data points were collected at 6 s intervals over the course of the experiment (60 min). In order to initiate polymerization a freshly filtered stock solution was diluted to 10 μM in 200 μL of Buffer A containing 33 μM heparin (Sigma-Aldrich; 3,000 MW) and 100 μM Thioflavin S (ThS). Kinetics data, corrected for the blank, were fit using a non-linear least squares algorithm to a Gompertz-like growth curve {{260 Necula, M. 2004}} (Eqn.)
where y is defined as the fluorescence signal at time t, ti corresponds to the inflection point of the curve, or the time of maximum growth rate, A is the maximum fluorescence observed for a given sample, and b=1/k, where k is the rate constant of aggregation, in units of s^−1. Lag-times were calculated as ti−b. The pre-growth curve exponential, e^(−k′t) was inserted to take into account the slow decrease in fluorescent intensity resulting from ThS bleaching, quenching and gravitational precipitation of the amyloid-ThS complex. Standard errors in fitted parameters were estimated assuming a 10% error in the sum of the squares.

The conditions of data set [4]: previously shown [19, 20]; cited from earlier work.
The nature of data set [5]: Transmission electron microscopy (TEM) of peptide aggregates. The following applies: 100 μM peptide in Buffer A, uranyl acetate stain. The class given is physicochemical. How it is done: All peptides were prepared at 100 μM in Buffer A and stained with uranyl acetate;
Transmission Electron Microscopy (TEM): Filtered stock peptide solutions were diluted to 100 μM in 5 mM MOPS containing 0.1% NaN3, 0.15 M NaCl, pH 7.2 (Buffer A) and were incubated at room temperature overnight. Samples were loaded onto carbon-coated Formvar copper grids (200 mesh) and stained with 2% wt/wt uranyl acetate. A JEOL 1200 EX scope interfaced to a digital camera was used to visualize samples.

A further data set deals with culture. In words: Neurotoxicity of non-tau related aggregating peptides in culture. The class given is cell-based. To be noted: FIG. 13. From the text: FIG. 13 is an image of the non-tau related aggregating peptides are not neurotoxic.

“Also recorded” adds a separate entry of the source. Where a SMILES comes first, the peptide text is derived from it. [ ]: non-standard residue; d: D form.

For the molecule `CC(=O)N[C@@H](CCCNC(=N)N)C(=O)N[C@@H](CCCNC(=N)N)C(=O)N[C@@H](CCCNC(=N)N)C(=O)N[C@@H](CCCNC(=N)N)C(=O)N[C@@H](CCCNC(=N)N)C(=O)N[C@@H](CCCNC(=N)N)C(=O)N[C@@H](CCCNC(=N)N)C(=O)N[C@@H](CCCNC(=N)N)C(=O)N[C@@H](CCCNC(=N)N)C(N)=O` [Ac—R9—NH2, reference compound], the “neurotoxicity / effect on neuronal survival” value (“neurotoxicity / effect” below) in data set [1] is “no effect on neuronal survival”.

Consider `CC[C@@H](C)[C@@H](NC(=O)[C@@H](CCC(N)=O)NC(=O)[C@H](NC(C)=O)C(C)C)C(=O)N[C@@H](C(=O)N[C@H](Cc1ccc(O)cc1)C(=O)N[C@H](CCCCN)C(N)=O)C(C)C` [Core-peptide, Ac-vqivyk-NH2] (Ac-[dV][dQ][dI][dV][dY][dK]-NH2), for which the “MTT assay result (mitochondrial function, words)” value in data set [2] is reported as “mitochondrial dysfunction”. In data set [1], the “neurotoxicity / effect” value is “not toxic”.

As to `CC[C@@H](C)[C@@H](NC(=O)[C@@H](CCC(N)=O)NC(=O)[C@H](NC(C)=O)C(C)C)C(=O)N[C@@H](C(=O)N[C@H](CCCCN)C(=O)N[C@H](CCCCN)C(=O)N[C@@H](CCCNC(=N)N)C(=O)N[C@@H](CCCNC(=N)N)C(=O)N[C@@H](CCCNC(=N)N)C(=O)N[C@@H](CCCNC(=N)N)C(=O)N[C@@H](CCCNC(=N)N)C(=O)N[C@@H](CCCNC(=N)N)C(=O)N[C@@H](CCCNC(=N)N)C(=O)N[C@@H](CCCNC(=N)N)C(=O)N[C@@H](CCCNC(=N)N)C(N)=O)C(C)C` [K-peptide, Ac-vqivkk-R9—NH2], the “neurotoxicity / effect” value in data set [1] is on record as “neither K-peptide nor VV-peptide reduced neuronal survival”.

As to `CC(=O)N[C@@H](C(=O)N[C@H](CCC(N)=O)C(=O)N[C@@H](C(=O)N[C@@H](C(=O)N[C@H](Cc1ccc(O)cc1)C(=O)N[C@H](CCCCN)C(=O)N[C@@H](CCCNC(=N)N)C(=O)N[C@@H](CCCNC(=N)N)C(=O)N[C@@H](CCCNC(=N)N)C(=O)N[C@@H](CCCNC(=N)N)C(=O)N[C@@H](CCCNC(=N)N)C(=O)N[C@@H](CCCNC(=N)N)C(=O)N[C@@H](CCCNC(=N)N)C(=O)N[C@@H](CCCNC(=N)N)C(=O)N[C@@H](CCCNC(=N)N)C(N)=O)C(C)C)C(C)C)C(C)C` [V-peptide, Ac-vqvvyk-R9—NH2], the “neurotoxicity / effect” value in data set [1] is “moderate level of cell death”.

With `CC(=O)N[C@@H](C(=O)N[C@H](CCC(N)=O)C(=O)N[C@@H](C(=O)N[C@@H](C(=O)N[C@@H](C(=O)N[C@H](CCCCN)C(=O)N[C@@H](CCCNC(=N)N)C(=O)N[C@@H](CCCNC(=N)N)C(=O)N[C@@H](CCCNC(=N)N)C(=O)N[C@@H](CCCNC(=N)N)C(=O)N[C@@H](CCCNC(=N)N)C(=O)N[C@@H](CCCNC(=N)N)C(=O)N[C@@H](CCCNC(=N)N)C(=O)N[C@@H](CCCNC(=N)N)C(=O)N[C@@H](CCCNC(=N)N)C(N)=O)C(C)C)C(C)C)C(C)C)C(C)C` [VV-peptide, Ac-vqvvvkR9—NH2], in data set [1], the “neurotoxicity / effect” value was “neither K-peptide nor VV-peptide reduced neuronal survival”.

For the molecule “Ac-VQIVFK-R9—NH2 (Ac-VQIVFKRRRRRRRRR-NH2) [F-peptide]”, the “A (maximum fluorescence, fitted kinetic parameter)” value in data set [3] (10 μM peptide, 33 μM heparin, 100 μM ThS, Buffer A pH 7.2, 21° C., NA = no aggregation observed by ThS fluorescence, ±10% error) was determined as 5.5. Moreover, in data set [3] (ThS fluorescence, heparin, 10 μM concentration), the “self-aggregation in vitro” value is “aggregate in a fashion similar to the Core peptide; also recorded: capable of self-aggregation in vitro”. The “neurotoxicity / effect” value in data set [1] is “induces toxicity”.

Turning to Ac-^306VQIVYK^311-NH2 [AcPHF6], the “critical concentration above which peptide polymerizes into amyloid fibrils” value in data set [4] is given as “about 2 μM”.

For “SQIVYA-R9 (SQIVYARRRRRRRRR) [SQ-peptide, de novo non-tau aggregating peptide]”, the “A (first phase / growth curve)” value in data set [3] (ThS fluorescence) worked out at 8.8. Further, the “morphology of aggregates” value in data set [5] was “irregular non-uniform filaments similar to V-peptide”. In addition, the neurotoxicity in culture result with culture is reported as “neither of these two peptides displayed neurotoxicity”.

For the molecule “STVIIE-R9 (STVIIERRRRRRRRR) [ST-peptide, non-tau aggregating peptide previously described by Pastor et al, reference compound]”, in data set [3] (ThS fluorescence), the lag time is listed as roughly 3000 s and the “A (first phase / growth curve)” value is reported as 4.9. For the same molecule, the “A′ (second period of more rapid aggregation)” value in data set [3] (according to Eqn. [2]) is recorded as 6.3. Besides, in data set [5] (overnight), the “diameter of fibrils / filaments / amyloid bodies / fibers” value is given as 10-40 nm. Also, in data set [5], the “morphology of aggregates” value is “amyloid sheets which appear to roll into irregular fibers”. Also, the neurotoxicity in culture entry with culture is recorded as “neither of these two peptides displayed neurotoxicity”.
